Test results published in article PMC3648344 (BMC Structural Biology, 2013).

Molecular target: T1, ypMnmC (Yersinia pestis, UniProt Q8ZD36)
T1 construct: gene mnmC
Conditions: selenomethionyl protein; co-purified FAD, none added; MnmC1 domain site; also in 3SGL with SAM

T1 sequence (Q8ZD36 whole entry, looked up): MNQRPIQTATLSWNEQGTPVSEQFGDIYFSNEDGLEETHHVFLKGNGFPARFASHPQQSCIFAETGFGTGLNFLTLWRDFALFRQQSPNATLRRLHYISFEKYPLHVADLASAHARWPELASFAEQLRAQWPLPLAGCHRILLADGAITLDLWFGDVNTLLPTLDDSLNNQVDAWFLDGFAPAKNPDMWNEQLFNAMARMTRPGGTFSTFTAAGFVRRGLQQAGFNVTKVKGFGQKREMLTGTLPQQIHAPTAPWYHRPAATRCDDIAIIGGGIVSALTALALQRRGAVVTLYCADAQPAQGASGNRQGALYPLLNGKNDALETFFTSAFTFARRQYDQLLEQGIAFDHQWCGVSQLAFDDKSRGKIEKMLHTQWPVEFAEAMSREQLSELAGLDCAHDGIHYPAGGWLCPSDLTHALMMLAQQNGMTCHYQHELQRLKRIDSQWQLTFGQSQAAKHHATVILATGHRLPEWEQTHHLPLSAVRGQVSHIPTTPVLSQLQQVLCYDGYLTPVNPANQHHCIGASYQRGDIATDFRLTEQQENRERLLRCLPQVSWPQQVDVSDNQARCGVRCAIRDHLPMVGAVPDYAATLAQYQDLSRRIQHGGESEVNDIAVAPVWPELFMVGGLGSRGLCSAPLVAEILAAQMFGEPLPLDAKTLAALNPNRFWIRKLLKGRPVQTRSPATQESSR

With `Cc1cc2nc3c(=O)[nH]c(=O)nc-3n(C[C@H](O)[C@H](O)[C@H](O)COP(=O)(O)OP(=O)(O)OC[C@H]3O[C@@H](n4cnc5c(N)ncnc54)[C@H](O)[C@@H]3O)c2cc1C` [FAD] as the compound, how does the “X-ray crystal structure, 2.30 Å” value read?
The value was “All three MnmC structures unambiguously exhibited bound FAD (Figure 4A)”.
